Measurements reported in patent US8802597B2, “Herbicidal pyrimidines” (E I du Pont de Nemours and Company, priority 2003, dated 2014).
Read-outs that look alike come from different tables or passages of the source.

Tests used:
Format in all cases: in vivo
[1] = test system: Surinam grass (Brachiaria decumbens); assay: Test B pre/postemergence; details: Urochloa decumbens; for pest or weed control at 125 g/ha: 125 g ai/ha; for pest or weed control at 500 g/ha: 500 g ai/ha
In short: (§1)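 Test chemicals in a non-phytotoxic solvent mixture with surfactant were applied preemergence to planted seeds and postemergence to plants 2 to 18 cm tall (1- to 4-leaf stage). After 13 to 15 days in a greenhouse, injury was visually rated against untreated controls on a 0 to 100 scale.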

[2] = test system: barnyardgrass (Echinochloa crus-galli); assay: Test B pre/postemergence; details: Echinochloa crus-galli; for pest or weed control at 125 g/ha: 125 g ai/ha; for pest or weed control at 500 g/ha: 500 g ai/ha
In short: as §1

[3] = test system: cocklebur (Xanthium strumarium); assay: Test B pre/postemergence; details: Xanthium strumarium; for pest or weed control at 125 g/ha: 125 g ai/ha; for pest or weed control at 500 g/ha: 500 g ai/ha
In short: as §1

[4] = test system: corn (Zea mays); assay: Test B pre/postemergence; details: Zea mays
In short: as §1

[5] = test system: crabgrass (Digitaria sanguinalis); assay: Test B pre/postemergence; details: Digitaria sanguinalis; for pest or weed control at 125 g/ha: 125 g ai/ha; for pest or weed control at 500 g/ha: 500 g ai/ha
In short: as §1

[6] = test system: giant foxtail (Setaria faberii); assay: Test B pre/postemergence; details: Setaria faberi; for pest or weed control at 125 g/ha: 125 g ai/ha; for pest or weed control at 500 g/ha: 500 g ai/ha
In short: as §1

[7] = test system: lambsquarters (Chenopodium album); assay: Test B pre/postemergence; details: Chenopodium album; for pest or weed control at 125 g/ha: 125 g ai/ha; for pest or weed control at 500 g/ha: 500 g ai/ha
In short: as §1

[8] = test system: morningglory (Ipomoea coccinea); assay: Test B pre/postemergence; details: Ipomoea; for pest or weed control at 125 g/ha: 125 g ai/ha; for pest or weed control at 500 g/ha: 500 g ai/ha
In short: as §1

[9] = test system: pigweed (Amaranthus retroflexus); assay: Test B pre/postemergence; details: Amaranthus retroflexus; for pest or weed control at 125 g/ha: 125 g ai/ha; for pest or weed control at 500 g/ha: 500 g ai/ha
In short: as §1

[10] = test system: velvetleaf (Abutilon theophrasti); assay: Test B pre/postemergence; details: Abutilon theophrasti; for pest or weed control at 125 g/ha: 125 g ai/ha; for pest or weed control at 500 g/ha: 500 g ai/ha
In short: as §1

[11] = test system: wheat (Triticum aestivum); assay: Test B pre/postemergence; details: Triticum aestivum; for plant injury at 125 g/ha: 125 g ai/ha; for plant injury at 500 g/ha: 500 g ai/ha
In short: as §1

[12] = test system: blackgrass (Alopecurus myosuroides); assay: Test B postemergence; details: Alopecurus myosuroides, post-emergence
In short: as §1

[13] = test system: wild oat (Avena fatua); assay: Test B postemergence; details: Avena fatua, post-emergence
In short: as §1

[14] = test system: barnyardgrass (Echinochloa crus-galli); assay: Test B flooded paddy test; details: Echinochloa crus-galli, Flood, 1000 g ai/ha; scale 0 (no effect) to 100 (complete control); read-out: Plant response rating, Barnyardgrass
In short: (§2)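 Visual injury scoring (0 = no effect, 100 = complete control) versus controls made 13 to 15 days after treatment in the greenhouse. Test species were grown in flooded paddy to the 2-leaf stage: rice, barnyardgrass, umbrella sedge, duck salad.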

[15] = test system: duck salad (Heteranthera limosa); assay: Test B flooded paddy test; details: Heteranthera limosa, Flood, 1000 g ai/ha; scale 0 to 100; read-out: Plant response rating, Ducksalad
In short: as §2

[16] = test system: rice (Oryza sativa); assay: Test B flooded paddy test; details: Oryza sativa, Flood, 1000 g ai/ha; scale 0 to 100; read-out: Plant response rating, Rice
In short: as §2

[17] = test system: umbrella sedge (Cyperus difformis); assay: Test B flooded paddy test; details: Cyperus difformis, Flood, 1000 g ai/ha; scale 0 to 100; read-out: Plant response rating, Sedge, Umbrella
In short: as §2

COC(=O)c1nc(C(C)C)nc(N)c1Br [Compound 3]
100%: pest or weed control at 500 g/ha ([3]; post-emergence, Postemergence, scale 0 to 100, read-out: Plant response rating, Cocklebur) | pest or weed control at 125 g/ha ([7]; post-emergence, Postemergence, scale 0 to 100 (0 no effect, 100 complete control), read-out: Lambsquarters plant response rating) | pest or weed control at 500 g/ha ([7]; post-emergence, Postemergence, scale 0 to 100, read-out: Plant response rating, Lambsquarters) | pest or weed control at 500 g/ha ([8]; post-emergence, Postemergence, scale 0 to 100, read-out: Plant response rating, Morningglory)
90%: pest or weed control at 500 g/ha ([7]; pre-emergence, Preemergence, scale 0 to 100 (0 no effect, 100 complete control), read-out: Lambsquarters plant response rating) | pest or weed control at 500 g/ha ([9]; post-emergence, Postemergence, scale 0 to 100, read-out: Plant response rating, Pigweed) | pest or weed control at 500 g/ha ([9]; pre-emergence, Preemergence, scale 0 to 100 (0 no effect, 100 complete control), read-out: Pigweed plant response rating)
80%: pest or weed control at 125 g/ha ([3]; pre-emergence, Preemergence, scale 0 to 100 (0 no effect, 100 complete control), read-out: Plant response rating, Cocklebur) | pest or weed control at 500 g/ha ([3]; pre-emergence, Preemergence, scale 0 to 100 (0 no effect, 100 complete control), read-out: Cocklebur plant response rating) | pest or weed control at 125 g/ha ([8]; post-emergence, Postemergence, scale 0 to 100 (0 no effect, 100 complete control), read-out: Morningglory plant response rating) | pest or weed control at 125 g/ha ([9]; post-emergence, Postemergence, scale 0 to 100 (0 no effect, 100 complete control), read-out: Pigweed plant response rating) | pest or weed control at 125 g/ha ([9]; pre-emergence, Preemergence, scale 0 to 100 (0 no effect, 100 complete control), read-out: Plant response rating, Pigweed) | pest or weed control at 500 g/ha ([10]; post-emergence, Postemergence, scale 0 to 100, read-out: Plant response rating, Velvetleaf)
20%: pest or weed control at 500 g/ha ([1]; pre-emergence, Preemergence, scale 0 to 100 (0 no effect, 100 complete control), read-out: Surinam Grass plant response rating) | pest or weed control at 125 g/ha ([6]; post-emergence, Postemergence, scale 0 to 100 (0 no effect, 100 complete control), read-out: Foxtail, Giant plant response rating) | plant injury at 500 g/ha ([11]; post-emergence, Postemergence, scale 0 to 100, read-out: Plant response rating, Wheat) | pest or weed control at 125 g/ha ([12]; 125 g ai/ha, scale 0 to 100 (0 no effect, 100 complete control), read-out: Blackgrass plant response rating)
40%: pest or weed control at 500 g/ha ([5]; post-emergence, Postemergence, scale 0 to 100, read-out: Plant response rating, Crabgrass) | pest or weed control at 500 g/ha ([6]; post-emergence, Postemergence, scale 0 to 100, read-out: Plant response rating, Foxtail, Giant) | pest or weed control at 125 g/ha ([10]; pre-emergence, Preemergence, scale 0 to 100 (0 no effect, 100 complete control), read-out: Plant response rating, Velvetleaf)
0%: pest or weed control at 125 g/ha ([1]; pre-emergence, Preemergence, scale 0 to 100 (0 no effect, 100 complete control), read-out: Plant response rating, Surinam Grass) | pest or weed control at 125 g/ha ([2]; post-emergence, Postemergence, scale 0 to 100 (0 no effect, 100 complete control), read-out: Barnyardgrass plant response rating) | pest or weed control at 125 g/ha ([2]; pre-emergence, Preemergence, scale 0 to 100 (0 no effect, 100 complete control), read-out: Plant response rating, Barnyardgrass) | pest or weed control at 500 g/ha ([2]; pre-emergence, Preemergence, scale 0 to 100 (0 no effect, 100 complete control), read-out: Barnyardgrass plant response rating) | plant injury at 125 g/ha ([4]; post-emergence, Postemergence, 125 g ai/ha, scale 0 to 100 (0 no effect, 100 complete control), read-out: Corn plant response rating) | Corn plant response rating (crop injury, 0 = no effect, 100 = complete kill) at 500 g/ha ([4]; post-emergence, Postemergence, 500 g ai/ha, scale 0 to 100) | Corn plant response rating (crop injury, 0 = no effect, 100 = complete kill) at 125 g/ha ([4]; pre-emergence, Preemergence, 125 g ai/ha, scale 0 to 100 (0 no effect, 100 complete control)) | plant injury at 500 g/ha ([4]; pre-emergence, Preemergence, 500 g ai/ha, scale 0 to 100 (0 no effect, 100 complete control), read-out: Corn plant response rating) | pest or weed control at 125 g/ha ([6]; pre-emergence, Preemergence, scale 0 to 100 (0 no effect, 100 complete control), read-out: Plant response rating, Foxtail, Giant) | pest or weed control at 500 g/ha ([6]; pre-emergence, Preemergence, scale 0 to 100 (0 no effect, 100 complete control), read-out: Foxtail, Giant plant response rating) | plant injury at 125 g/ha ([11]; pre-emergence, Preemergence, scale 0 to 100 (0 no effect, 100 complete control), read-out: Plant response rating, Wheat) | plant injury at 500 g/ha ([11]; pre-emergence, Preemergence, scale 0 to 100 (0 no effect, 100 complete control), read-out: Wheat plant response rating) | pest or weed control at 1000 g/ha [14] | pest or weed control at 1000 g/ha [15] | plant injury at 1000 g/ha [16] | pest or weed control at 1000 g/ha [17]
50%: pest or weed control at 500 g/ha ([5]; pre-emergence, Preemergence, scale 0 to 100 (0 no effect, 100 complete control), read-out: Crabgrass plant response rating) | pest or weed control at 125 g/ha ([8]; pre-emergence, Preemergence, scale 0 to 100 (0 no effect, 100 complete control), read-out: Plant response rating, Morningglory) | pest or weed control at 125 g/ha ([10]; post-emergence, Postemergence, scale 0 to 100 (0 no effect, 100 complete control), read-out: Velvetleaf plant response rating) | pest or weed control at 500 g/ha ([12]; 500 g ai/ha, scale 0 to 100, read-out: Plant response rating, Blackgrass)
10%: pest or weed control at 125 g/ha ([1]; post-emergence, Postemergence, scale 0 to 100 (0 no effect, 100 complete control), read-out: Surinam Grass plant response rating) | pest or weed control at 500 g/ha ([2]; post-emergence, Postemergence, scale 0 to 100, read-out: Plant response rating, Barnyardgrass) | pest or weed control at 125 g/ha ([5]; pre-emergence, Preemergence, scale 0 to 100 (0 no effect, 100 complete control), read-out: Plant response rating, Crabgrass) | plant injury at 125 g/ha ([11]; post-emergence, Postemergence, scale 0 to 100 (0 no effect, 100 complete control), read-out: Wheat plant response rating) | pest or weed control at 125 g/ha ([13]; 125 g ai/ha, scale 0 to 100 (0 no effect, 100 complete control), read-out: Oat, Wild plant response rating)
70%: pest or weed control at 125 g/ha ([3]; post-emergence, Postemergence, scale 0 to 100 (0 no effect, 100 complete control), read-out: Cocklebur plant response rating) | pest or weed control at 125 g/ha ([7]; pre-emergence, Preemergence, scale 0 to 100 (0 no effect, 100 complete control), read-out: Plant response rating, Lambsquarters) | pest or weed control at 500 g/ha ([10]; pre-emergence, Preemergence, scale 0 to 100 (0 no effect, 100 complete control), read-out: Velvetleaf plant response rating)
30%: pest or weed control at 500 g/ha ([1]; post-emergence, Postemergence, scale 0 to 100, read-out: Plant response rating, Surinam Grass) | pest or weed control at 125 g/ha ([5]; post-emergence, Postemergence, scale 0 to 100 (0 no effect, 100 complete control), read-out: Crabgrass plant response rating) | pest or weed control at 500 g/ha ([13]; 500 g ai/ha, scale 0 to 100, read-out: Plant response rating, Oat, Wild)
60%: pest or weed control at 500 g/ha ([8]; pre-emergence, Preemergence, scale 0 to 100 (0 no effect, 100 complete control), read-out: Morningglory plant response rating)
